No end group written: not given here.
Columns and labels:
Format in all cases: cell-based, human
Settings in all cases: 24 h
[1] = test system: UOK262 cells of kidney cancer; assay: Matrigel transwell invasion test
Experimental: (§1) Dilute 10 mg/mL Matrigel with culture medium at 1:3, spread it on membranes of transwell cells and dry it in the air at room temperature. Use trypsin to digest and collect SCC4 cells of head and neck cancer, SW579 cells of thyroid cancer, A549 cells of lung cancer, TE13 cells of esophageal squamous cell carcinoma, MGC803 cells of stomach cancer, MDA-MB-231 cells of breast cancer, UOK262 cells of kidney cancer, and A431 cells of skin cancer of human, which were cultured to the logarithmic phase, wash with PBS twice and re-suspend with a blank culture medium. Adjust cell concentration to 1×10^5 cells/mL. Inoculate the cells to transwell cells, 100 μL per well, and meanwhile add micropeptides HMMW I to IX at different doses to every cell. Add 0.6 mL of complete medium containing 10% FBS to the transwell cells to stimulate cell invasion, and culture in 5% CO2 at 37 DEG C. for 24 h. Discard the medium in the wells, fix with 90% alcohol at room temperature for 30 min, stain with 0.1% crystal violet at room temperature for 10 min, rinse with clear water, gently wipe off the non-invaded cells in the upper layer with a cotton swab, observe under a microscope and select four fields of view to take pictures and count. Calculate the invasion inhibition rate (IIR) of the cells according to the following formula:
(§2) [formula] where Ntest is the number of invaded cells in the test groups (the groups at a dose of 1, 4 or 16 μM in the table), Ncontrol is the number of invaded cells in the blank control groups (the groups at a dose of 0 μM in the table). The test was repeated independently three times. Mean±SD was calculated based on the test results. Statistical t test was done. Value P was used to express statistical difference. The statistical significance of the results is a method for estimating how true the results are (the totality can be represented), *P<0.05 means significant difference, and **P<0.01 means very significant difference.

[2] = test system: MGC803 cells of stomach cancer; assay: Matrigel transwell invasion test
Experimental: as §1, §2

[3] = test system: TE13 cells of esophageal squamous cell carcinoma; assay: Matrigel transwell invasion test
Experimental: as §1, §2

[4] = test system: MDA-MB-231 cells of breast cancer; assay: Matrigel transwell invasion test
Experimental: as §1, §2

[5] = test system: SCC4 cells of head and neck cancer; assay: Matrigel transwell invasion test
Experimental: as §1, §2

[6] = test system: A549 cells of lung cancer; assay: Matrigel transwell invasion test
Experimental: as §1, §2

[7] = test system: A431 cells of skin cancer; assay: Matrigel transwell invasion test
Experimental: as §1, §2

[8] = test system: SW579 cells of thyroid cancer; assay: Matrigel transwell invasion test
Experimental: as §1, §2

[9] = test system: UOK262 cells of kidney cancer; assay: transwell migration test
Experimental: (§3) Inoculate SCC4 cells of head and neck cancer, SW579 cells of thyroid cancer, A549 cells of lung cancer, TE13 cells of esophageal squamous cell carcinoma, MGC803 cells of stomach cancer, MDA-MB-231 cells of breast cancer, UOK262 cells of kidney cancer, and A431 cells of skin cancer of human to transwell cells, 100 μL per well, and meanwhile add micropeptides HMMW I to IX at different doses to every cell. Add 0.6 mL of complete medium containing 10% FBS to the transwell cells to stimulate cell migration, and culture in 5% CO2 at 37 DEG C. for 24 h. Discard the medium in the wells, fix with 90% alcohol at room temperature for 30 min, stain with 0.1% crystal violet at room temperature for 10 min, rinse with clear water, gently wipe off the non-migrated cells in the upper layer with a cotton swab, observe under a microscope and select four fields of view to take pictures and count. Calculate the migration inhibition rate (MIR) of the cells according to the following formula: […]
(§4) The test was repeated independently three times. Mean±SD was calculated based on the test results. Statistical t test was done. Here, “the test was repeated independently three times” means that every dose of any type of cells was tested repeatedly three times, and then the above formula was used to calculate the number of migrated cells (Mean±SD). Value P was used to express statistical difference. The statistical significance of the results is a method for estimating how true the results are (the totality can be represented), *P<0.05 means significant difference, and **P<0.01 means very significant difference.

[10] = test system: MGC803 cells of stomach cancer; assay: transwell migration test
Experimental: as §3, §4

[11] = test system: MDA-MB-231 cells of breast cancer; assay: transwell migration test
Experimental: as §3, §4

[12] = test system: SCC4 cells of head and neck cancer; assay: transwell migration test
Experimental: as §3, §4

[13] = test system: A549 cells of lung cancer; assay: transwell migration test
Experimental: as §3, §4

[14] = test system: A431 cells of skin cancer; assay: transwell migration test
Experimental: as §3, §4

[15] = test system: SW579 cells of thyroid cancer; assay: transwell migration test
Experimental: as §3, §4

With “MERAGVPGFSPRRSSVEAKMQSTSCSVRKSSTVTAWPAVVLLLHTSKDDEE-OH [HMMW-II]” the invasion inhibition rate ([1]; dose 1 μM) was 34.70%, the invasion inhibition rate ([1]; dose 4 μM) was 54.16% and the invasion inhibition rate ([1]; dose 16 μM) was 65.64%. It also gave an invasion inhibition rate ([2]; dose 1 μM) of 27.52%, an invasion inhibition rate ([2]; dose 4 μM) of 51.04% and an invasion inhibition rate ([2]; dose 16 μM) of 66.51%. It also gave an invasion inhibition rate ([3]; dose 1 μM) of 21.41%, an invasion inhibition rate ([3]; dose 4 μM) of 43.46% and an invasion inhibition rate ([3]; dose 16 μM) of 64.56%. The invasion inhibition rate ([4]; dose 1 μM) was 25.93%, the invasion inhibition rate ([4]; dose 4 μM) was 47.75% and the invasion inhibition rate ([4]; dose 16 μM) was 71.52%. For the same substance, the invasion inhibition rate ([5]; dose 1 μM) was 21.72%, the invasion inhibition rate ([5]; dose 4 μM) was 45.14% and the invasion inhibition rate ([5]; dose 16 μM) was 73.80%. It also gave an invasion inhibition rate ([6]; dose 1 μM) of 33.25%, an invasion inhibition rate ([6]; dose 4 μM) of 55.12% and an invasion inhibition rate ([6]; dose 16 μM) of 65.09%. It also gave an invasion inhibition rate ([7]; dose 1 μM) of 31.71%, an invasion inhibition rate ([7]; dose 4 μM) of 53.41% and an invasion inhibition rate ([7]; dose 16 μM) of 68.25%. The invasion inhibition rate ([8]; dose 1 μM) was 22.13%, the invasion inhibition rate ([8]; dose 4 μM) was 45.78% and the invasion inhibition rate ([8]; dose 16 μM) was 66.73%. The migration inhibition rate ([9]; dose 1 μM) was 16.29%, the migration inhibition rate ([9]; dose 4 μM) was 41.28% and the migration inhibition rate ([9]; dose 16 μM) was 70.43%. For the same substance, the migration inhibition rate ([10]; dose 1 μM) was 25.64%, the migration inhibition rate ([10]; dose 4 μM) was 52.41% and the migration inhibition rate ([10]; dose 16 μM) was 73.82%. It also gave a migration inhibition rate ([11]; dose 1 μM) of 27.07%, a migration inhibition rate ([11]; dose 4 μM) of 51.24% and a migration inhibition rate ([11]; dose 16 μM) of 73.18%. The migration inhibition rate ([12]; dose 1 μM) was 18.81%, the migration inhibition rate ([12]; dose 4 μM) was 43.67% and the migration inhibition rate ([12]; dose 16 μM) was 75.04%. The migration inhibition rate ([13]; dose 1 μM) was 34.01%, the migration inhibition rate ([13]; dose 4 μM) was 52.91% and the migration inhibition rate ([13]; dose 16 μM) was 72.36%. The migration inhibition rate ([14]; dose 1 μM) was 31.14%, the migration inhibition rate ([14]; dose 4 μM) was 53.12% and the migration inhibition rate ([14]; dose 16 μM) was 71.12%. The migration inhibition rate ([15]; dose 1 μM) was 18.80%, the migration inhibition rate ([15]; dose 4 μM) was 50.13% and the migration inhibition rate ([15]; dose 16 μM) was 71.92%.
“MERAGVPGFSPRRSSVEAKMQSTSCSVRKSSTVTAWPAVVLLLSWGKDDEE-OH [HMMW-IV]” showed an invasion inhibition rate ([1]; dose 1 μM) of 38.40%, an invasion inhibition rate ([1]; dose 4 μM) of 58.36% and an invasion inhibition rate ([1]; dose 16 μM) of 67.62%. For the same substance, the invasion inhibition rate ([2]; dose 1 μM) was 23.50%, the invasion inhibition rate ([2]; dose 4 μM) was 54.21% and the invasion inhibition rate ([2]; dose 16 μM) was 63.49%. For the same substance, the invasion inhibition rate ([3]; dose 1 μM) was 22.40%, the invasion inhibition rate ([3]; dose 4 μM) was 42.42% and the invasion inhibition rate ([3]; dose 16 μM) was 67.51%. It also gave an invasion inhibition rate ([4]; dose 1 μM) of 24.91%, an invasion inhibition rate ([4]; dose 4 μM) of 46.73% and an invasion inhibition rate ([4]; dose 16 μM) of 71.64%. The invasion inhibition rate ([5]; dose 1 μM) was 22.79%, the invasion inhibition rate ([5]; dose 4 μM) was 47.34% and the invasion inhibition rate ([5]; dose 16 μM) was 74.40%. The invasion inhibition rate ([6]; dose 1 μM) was 34.22%, the invasion inhibition rate ([6]; dose 4 μM) was 56.11% and the invasion inhibition rate ([6]; dose 16 μM) was 65.24%. For the same substance, the invasion inhibition rate ([7]; dose 1 μM) was 36.25%, the invasion inhibition rate ([7]; dose 4 μM) was 57.19% and the invasion inhibition rate ([7]; dose 16 μM) was 71.36%. It also gave an invasion inhibition rate ([8]; dose 1 μM) of 23.10%, an invasion inhibition rate ([8]; dose 4 μM) of 46.71% and an invasion inhibition rate ([8]; dose 16 μM) of 67.72%. For the same substance, the migration inhibition rate ([9]; dose 1 μM) was 16.32%, the migration inhibition rate ([9]; dose 4 μM) was 41.38% and the migration inhibition rate ([9]; dose 16 μM) was 70.47%. It also gave a migration inhibition rate ([10]; dose 1 μM) of 25.60%, a migration inhibition rate ([10]; dose 4 μM) of 52.45% and a migration inhibition rate ([10]; dose 16 μM) of 74.80%. For the same substance, the migration inhibition rate ([11]; dose 1 μM) was 29.06%, the migration inhibition rate ([11]; dose 4 μM) was 51.34% and the migration inhibition rate ([11]; dose 16 μM) was 73.38%. It also gave a migration inhibition rate ([12]; dose 1 μM) of 16.84%, a migration inhibition rate ([12]; dose 4 μM) of 43.91% and a migration inhibition rate ([12]; dose 16 μM) of 75.04%. It also gave a migration inhibition rate ([13]; dose 1 μM) of 33.00%, a migration inhibition rate ([13]; dose 4 μM) of 52.91% and a migration inhibition rate ([13]; dose 16 μM) of 71.46%. The migration inhibition rate ([14]; dose 1 μM) was 32.19%, the migration inhibition rate ([14]; dose 4 μM) was 54.17% and the migration inhibition rate ([14]; dose 16 μM) was 71.24%. It also gave a migration inhibition rate ([15]; dose 1 μM) of 18.81%, a migration inhibition rate ([15]; dose 4 μM) of 50.03% and a migration inhibition rate ([15]; dose 16 μM) of 71.91%.
